Assay results from PubChem BioAssay (NCI).
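Following 48 hours of exposure in 96-well plates, responses at five concentrations were used to interpolate endpoints linearly. TGI marks complete inhibition of growth.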

Legend:
Experiment in all cases: NCI-60 cell line screen, 48 h
MALME-3M melanoma = tested on: MALME-3M melanoma
OVCAR-8 ovarian = tested on: OVCAR-8 ovarian
UO-31 renal = tested on: UO-31 renal
ACHN renal = tested on: ACHN renal
SK-OV-3 ovarian = tested on: SK-OV-3 ovarian
SF-268 CNS = tested on: SF-268 CNS
LOX IMVI melanoma = tested on: LOX IMVI melanoma
SNB-19 CNS = tested on: SNB-19 CNS
KM12 colon = tested on: KM12 colon
SNB-78 CNS = tested on: SNB-78 CNS
TK-10 renal = tested on: TK-10 renal
SK-MEL-2 melanoma = tested on: SK-MEL-2 melanoma
NCI-H23 lung = tested on: NCI-H23 lung
SF-295 CNS = tested on: SF-295 CNS
M19-MEL melanoma = tested on: M19-MEL melanoma
NCI-H522 lung = tested on: NCI-H522 lung
NCI-H460 lung = tested on: NCI-H460 lung
NCI-H226 lung = tested on: NCI-H226 lung
HOP-18 NSCLC = tested on: HOP-18 NSCLC
SNB-75 CNS = tested on: SNB-75 CNS
HCT-15 colon = tested on: HCT-15 colon
MOLT-4 leukemia = tested on: MOLT-4 leukemia
OVCAR-3 ovarian = tested on: OVCAR-3 ovarian
DMS 114 small cell lung = tested on: DMS 114 small cell lung
DLD-1 colon = tested on: DLD-1 colon
LXFL 529 NSCLC = tested on: LXFL 529 NSCLC
HCT-116 colon = tested on: HCT-116 colon
OVCAR-4 ovarian = tested on: OVCAR-4 ovarian
UACC-257 melanoma = tested on: UACC-257 melanoma
A549 NSCLC = tested on: A549 NSCLC
SK-MEL-5 melanoma = tested on: SK-MEL-5 melanoma
SN12C renal = tested on: SN12C renal
HT29 colon = tested on: HT29 colon
DMS 273 small cell lung = tested on: DMS 273 small cell lung
IGROV1 ovarian = tested on: IGROV1 ovarian
SK-MEL-28 melanoma = tested on: SK-MEL-28 melanoma
SF-539 CNS = tested on: SF-539 CNS
RXF 393 renal = tested on: RXF 393 renal
UACC-62 melanoma = tested on: UACC-62 melanoma
HOP-92 NSCLC = tested on: HOP-92 NSCLC
PC-3 prostate = tested on: PC-3 prostate
K-562 leukemia = tested on: K-562 leukemia
RPMI-8226 leukemia = tested on: RPMI-8226 leukemia
OVCAR-5 ovarian = tested on: OVCAR-5 ovarian
EKVX NSCLC = tested on: EKVX NSCLC
CAKI-1 renal = tested on: CAKI-1 renal
M14 melanoma = tested on: M14 melanoma
MCF7 breast = tested on: MCF7 breast
COLO 205 colon = tested on: COLO 205 colon
HOP-62 NSCLC = tested on: HOP-62 NSCLC
DU-145 prostate = tested on: DU-145 prostate
786-0 renal = tested on: 786-0 renal
MDA-N = tested on: MDA-N
HL-60(TB) leukemia = tested on: HL-60(TB) leukemia
HCC-2998 colon = tested on: HCC-2998 colon
T-47D breast = tested on: T-47D breast
SR leukemia = tested on: SR leukemia
A498 renal = tested on: A498 renal
BT-549 breast = tested on: BT-549 breast
MDA-MB-435 = tested on: MDA-MB-435
SW-620 colon = tested on: SW-620 colon
HS 578T breast = tested on: HS 578T breast
MDA-MB-231 breast = tested on: MDA-MB-231 breast
NCI/ADR-RES ovarian = tested on: NCI/ADR-RES ovarian
U251 CNS = tested on: U251 CNS

## CC(=O)Oc1cc(OC(C)=O)c2c(=O)c3ccccc3n(C)c2c1
MALME-3M melanoma
  TGI: 48.8 µM
OVCAR-8 ovarian
  TGI: 64.4 µM
UO-31 renal
  TGI: 53.8 µM
ACHN renal
  TGI: 65.1 µM
SK-OV-3 ovarian
  TGI: 59.8 µM
SF-268 CNS
  TGI: 76.5 µM
LOX IMVI melanoma
  TGI: 28.1 µM
SNB-19 CNS
  TGI: > 100 µM
KM12 colon
  TGI: > 100 µM
SNB-78 CNS
  TGI: 84.3 µM
TK-10 renal
  TGI: > 100 µM
SK-MEL-2 melanoma
  TGI: 97.1 µM
NCI-H23 lung
  TGI: 77.6 µM
SF-295 CNS
  TGI: 44.2 µM
M19-MEL melanoma
  TGI: 52.2 µM
NCI-H522 lung
  TGI: 52.8 µM
NCI-H460 lung
  TGI: 67.5 µM
NCI-H226 lung
  TGI: 40.5 µM
HOP-18 NSCLC
  TGI: 57.1 µM
SNB-75 CNS
  TGI: 76.3 µM
HCT-15 colon
  TGI: > 100 µM
MOLT-4 leukemia
  TGI: > 100 µM
OVCAR-3 ovarian
  TGI: > 100 µM
DMS 114 small cell lung
  TGI: 96.5 µM
DLD-1 colon
  TGI: 91.3 µM
LXFL 529 NSCLC
  TGI: > 100 µM
HCT-116 colon
  TGI: 74.7 µM
OVCAR-4 ovarian
  TGI: > 100 µM
UACC-257 melanoma
  TGI: 84.1 µM
A549 NSCLC
  TGI: > 100 µM
SK-MEL-5 melanoma
  TGI: 29.7 µM
SN12C renal
  TGI: 88.2 µM
HT29 colon
  TGI: 64.5 µM
DMS 273 small cell lung
  TGI: > 100 µM
IGROV1 ovarian
  TGI: 68.4 µM
SK-MEL-28 melanoma
  TGI: 59.9 µM
SF-539 CNS
  TGI: 42.2 µM
RXF 393 renal
  TGI: 75.2 µM
UACC-62 melanoma
  TGI: > 100 µM

## O=C1C2CC(Cl)C(SSC3CC4C(=O)N(SC(Cl)(Cl)C(Cl)Cl)C(=O)C4CC3Cl)CC2C(=O)N1SC(Cl)(Cl)C(Cl)Cl (stereo not given)
HOP-92 NSCLC
  TGI: 3 µM
MALME-3M melanoma
  TGI: 2.86 µM
PC-3 prostate
  TGI: 2.79 µM
OVCAR-8 ovarian
  TGI: 3.5 µM
UO-31 renal
  TGI: 4.82 µM
K-562 leukemia
  TGI: 5.01 µM
ACHN renal
  TGI: 6.66 µM
SK-OV-3 ovarian
  TGI: 8.53 µM
SF-268 CNS
  TGI: 3.91 µM
RPMI-8226 leukemia
  TGI: 5.35 µM
OVCAR-5 ovarian
  TGI: 66.3 µM
EKVX NSCLC
  TGI: 15.5 µM
CAKI-1 renal
  TGI: 6.7 µM
LOX IMVI melanoma
  TGI: 3.03 µM
M14 melanoma
  TGI: 2.88 µM
MCF7 breast
  TGI: 7.67 µM
SNB-19 CNS
  TGI: 12.7 µM
COLO 205 colon
  TGI: 4.87 µM
KM12 colon
  TGI: > 51 µM
HOP-62 NSCLC
  TGI: 8.64 µM
TK-10 renal
  TGI: 7.07 µM
SK-MEL-2 melanoma
  TGI: 3.65 µM
NCI-H23 lung
  TGI: 5.65 µM
SF-295 CNS
  TGI: 17.1 µM
DU-145 prostate
  TGI: 9.44 µM
786-0 renal
  TGI: 3.65 µM
NCI-H522 lung
  TGI: 1.5 µM
NCI-H460 lung
  TGI: 13.4 µM
NCI-H226 lung
  TGI: 26.4 µM
MDA-N
  TGI: 6.71 µM
SNB-75 CNS
  TGI: 6.12 µM
MOLT-4 leukemia
  TGI: 1.35 µM
OVCAR-3 ovarian
  TGI: 5.07 µM
HL-60(TB) leukemia
  TGI: 1.83 µM
HCC-2998 colon
  TGI: 16.4 µM
T-47D breast
  TGI: 7.18 µM
HCT-116 colon
  TGI: 7.38 µM
OVCAR-4 ovarian
  TGI: 4.31 µM
UACC-257 melanoma
  TGI: 5.79 µM
A549 NSCLC
  TGI: 28.3 µM
SK-MEL-5 melanoma
  TGI: 4.55 µM
SN12C renal
  TGI: 5.24 µM
SR leukemia
  TGI: 1.21 µM
A498 renal
  TGI: 7.73 µM
IGROV1 ovarian
  TGI: 3.06 µM
BT-549 breast
  TGI: 3.41 µM
MDA-MB-435
  TGI: 6.23 µM
SK-MEL-28 melanoma
  TGI: 6.18 µM
SF-539 CNS
  TGI: 6.89 µM
SW-620 colon
  TGI: 5.09 µM
RXF 393 renal
  TGI: 3.17 µM
UACC-62 melanoma
  TGI: 4.49 µM
HS 578T breast
  TGI: > 22.8 µM
MDA-MB-231 breast
  TGI: 3.16 µM
NCI/ADR-RES ovarian
  TGI: 6.05 µM
U251 CNS
  TGI: 3.75 µM
